Assay results reported in ChEMBL document CHEMBL5030514, “Discovery of Anti-TNBC Agents Targeting PTP1B: Total Synthesis, Structure-Activity Relationship, In Vitro and In Vivo Investigations of Jamunones” (J Med Chem, 2021).
pIC50: −log10 of the molar value. Active and inactive are the calls of the source. The rule behind the calls is not given here.

How the values were obtained:
MDA-MB-231 [1] = assay: Antiproliferative activity against human MDA-MB-231 cells measured by MTT assay; assay type: functional, cell-based
MCF7 [2] = assay: Antiproliferative activity against human MCF-7 cells measured by MTT assay; assay type: functional, cell-based
MDA-MB-231 [3] = assay: Cytotoxicity against human MDA-MB-231 cells measured by MTT assay; assay type: functional, cell-based
[4] = Selective index, ratio of IC50 for human 293T cells to IC50 of MCF-7 cells; assay type: toxicity; details: 293T cells versus MCF-7 cells, read-out: Selectivity Index
[5] = Selective index, ratio of IC50 for HUVEC cells to IC50 of MCF-7 cells; assay type: toxicity; details: human, HUVEC cells versus MCF-7 cells; read-out: Selectivity Index
MCF7 [6] = assay: Antiproliferative activity against human MCF-7 cells assessed as effect on cell viability at 1.67-15 uM for 24 hrs measured by MTT assay; assay type: functional, cell-based
MDA-MB-231 [7] = assay: Induction of mitochondrial apoptosis in human MDA-MB-231 cells assessed as formation of apoptotic bodies by Hoechst 33258 staining based fluorescence microscopic assay; assay type: functional, cell-based
MCF7 [8] = assay: Induction of mitochondrial apoptosis in human MCF-7 cells assessed as membrane blebbing by Hoechst 33258 staining based fluorescence microscopic assay; assay type: functional, cell-based
MCF7 [9] = assay: Induction of mitochondrial apoptosis in human MCF-7 cells assessed as accumulation of reactive oxygen species by flow cytometry; assay type: functional, cell-based
MCF7 [10] = assay: Induction of mitochondrial apoptosis in human MCF-7 cells assessed as decrease in mitochondrial membrane potential levels at 5 uM measured after 24 hrs by flow cytometry; assay type: functional; design: scale not given: the % may be the effect or the level left
MDA-MB-231 [11] = assay: Induction of apoptosis in human MDA-MB-231 cells assessed as increase in production of cleaved caspase-9 at 0.56 to 5 uM measured after 24 hrs by Western blot analysis; assay type: functional, cell-based; details: dose 0.56-5 µM
MDA-MB-231 [12] = assay: Induction of apoptosis in human MDA-MB-231 cells assessed as decrease in Bcl-2 level at 0.56 to 5 uM measured after 24 hrs by Western blot analysis; assay type: functional, cell-based; details: dose 0.56-5 µM
MCF7 [13] = assay: Induction of apoptosis in human MCF-7 cells assessed as increase in production of cleaved caspase-9 at 1.67 to 15 uM measured after 24 hrs by Western blot analysis; assay type: functional, cell-based; details: dose 1.67-15 µM
MCF7 [14] = assay: Induction of apoptosis in human MCF-7 cells assessed as increase in production of cleaved caspase-3 at 1.67 to 15 uM measured after 24 hrs by Western blot analysis; assay type: functional, cell-based; details: dose 1.67-15 µM
MDA-MB-231 [15] = assay: Induction of apoptosis in human MDA-MB-231 cells assessed as upregulation of cleaved poly(ADP-ribose) polymerase level at 0.56 to 5 uM measured after 24 hrs by Western blot analysis; assay type: functional, cell-based; details: dose 0.56-5 µM
MDA-MB-231 [16] = assay: Cell cycle arrest in human MDA-MB-231 cells assessed as downregulation of cyclin D1 expression by Western blot analysis; assay type: functional, cell-based
MDA-MB-231 [17] = assay: Cell cycle arrest in human MDA-MB-231 cells assessed as downregulation of cyclin E1 expression by Western blot analysis; assay type: functional, cell-based
MDA-MB-231 [18] = assay: Cell cycle arrest in human MDA-MB-231 cells assessed as downregulation of CDK2 expression by Western blot analysis; assay type: functional, cell-based
MDA-MB-231 [19] = assay: Cell cycle arrest in human MDA-MB-231 cells assessed as downregulation of CDK6 expression by Western blot analysis; assay type: functional, cell-based
MCF7 [20] = assay: Cell cycle arrest in human MCF-7 cells assessed as downregulation of cyclin D1 expression by Western blot analysis; assay type: functional, cell-based
MCF7 [21] = assay: Cell cycle arrest in human MCF-7 cells assessed as downregulation of cyclin E1 expression by Western blot analysis; assay type: functional, cell-based
MCF7 [22] = assay: Cell cycle arrest in human MCF-7 cells assessed as upregulation of p21 level by Western blot analysis; assay type: functional, cell-based
MDA-MB-231 [23] = assay: Antitumour activity against human MDA-MB-231 cells xenografted in BALB/c nude mouse assessed as upregulation of p21 level at 15 to 30 mg/kg, ip administered once for every other day for 20 days by Western blot analysis; assay type: functional, organism-based; details: dose 15-30 mg/kg, time 20.0 day
MDA-MB-231 [24] = assay: Antitumour activity against human MDA-MB-231 cells xenografted in BALB/c nude mouse assessed as downregulation of cyclin D3 level at 15 to 30 mg/kg, ip administered once for every other day for 20 days by Western blot analysis; assay type: functional, organism-based; details: dose 15-30 mg/kg, time 20.0 day
MDA-MB-231 [25] = assay: Antitumour activity against human MDA-MB-231 cells xenografted in BALB/c nude mouse assessed as downregulation of Bcl-2 level at 15 to 30 mg/kg, ip administered once for every other day for 20 days by Western blot analysis; assay type: functional, organism-based; details: dose 15-30 mg/kg, time 20.0 day
MCF7 [26] = assay: Effect on PI3K p85 expression in human MCF7 cells by Western blot analysis; assay type: functional, cell-based
MCF7 [27] = assay: Effect on Akt expression in human MCF7 cells by Western blot analysis; assay type: functional, cell-based
MCF7 [28] = assay: Inhibition of PI3K p85 phosphorylation in human MCF7 cells by Western blot analysis; assay type: cell-based
MDA-MB-231 [29] = assay: Induction of mitochondrial apoptosis in human MDA-MB-231 cells assessed as late apoptotic cells at 5 uM measured after 24 hrs by FITC -annexin V/PI double staining based flow cytometric analysis (reference value: 2.3%); assay type: functional
MDA-MB-231 [30] = assay: Induction of mitochondrial apoptosis in human MDA-MB-231 cells assessed as early apoptotic cells at 5 uM measured after 24 hrs by FITC -annexin V/PI double staining based flow cytometric analysis (reference value: 2.2%); assay type: functional
MCF7 [31] = assay: Induction of mitochondrial apoptosis in human MCF7 cells assessed as viable cells at 15 uM measured after 24 hrs by FITC -annexin V/PI double staining based flow cytometric analysis (reference value: 93.2%); assay type: functional; details: read-out: Activity
MDA-MB-231 [32] = assay: Cell cycle arrest in human MDA-MB-231 cells assessed as accumulation of cells at S phase at 5 uM measured after 24 hrs by propidium iodide staining based flow cytometry (reference value: 27.6%); assay type: functional
MDA-MB-231 [33] = assay: Cell cycle arrest in human MDA-MB-231 cells assessed as accumulation of cells at G2/M phase at 5 uM measured after 24 hrs by propidium iodide staining based flow cytometry (reference value: 27.5%); assay type: functional
MCF7 [34] = assay: Cell cycle arrest in human MCF7 cells assessed as accumulation of cells at S phase at 15 uM measured after 24 hrs by propidium iodide staining based flow cytometry (reference value: 16.8%); assay type: functional
[35] = molecular target: T1, Tyrosine-protein phosphatase non-receptor type 1 (Homo sapiens, UniProt P18031); assay: Inhibition of PTP1B (unknown origin)
T1 sequence (P18031 whole entry): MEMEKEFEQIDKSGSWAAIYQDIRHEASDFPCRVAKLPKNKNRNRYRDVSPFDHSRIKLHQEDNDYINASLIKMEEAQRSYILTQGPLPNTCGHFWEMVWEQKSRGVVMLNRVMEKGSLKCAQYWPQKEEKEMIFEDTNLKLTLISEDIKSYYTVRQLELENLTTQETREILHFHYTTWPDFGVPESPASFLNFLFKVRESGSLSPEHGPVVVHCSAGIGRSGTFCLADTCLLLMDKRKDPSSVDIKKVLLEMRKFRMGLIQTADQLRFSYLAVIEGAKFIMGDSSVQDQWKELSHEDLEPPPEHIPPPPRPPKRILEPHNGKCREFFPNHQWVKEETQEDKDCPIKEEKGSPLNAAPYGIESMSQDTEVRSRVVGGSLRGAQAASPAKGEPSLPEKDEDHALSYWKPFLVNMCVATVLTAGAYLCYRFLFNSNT

pIC50 (MDA-MB-231 [1]): 5.17
pIC50 (MCF7 [2]): 4.76
pIC50 [35]: 5.74
SMILES: CCCC/C=C/CCCCCCCCCC1(O)CC(=O)c2c(O)c(C)c(O)c(C)c2O1 (stereo not given)
pIC50 (MDA-MB-231 [3]): 5.17
selectivity ratio [4]: 2.08
selectivity ratio [5]: 2.64
Activity (MCF7 [6]): inactive
Activity (MDA-MB-231 [7]): Active
Activity (MCF7 [8]): Active
Activity (MCF7 [9]): Active
Activity (MCF7 [10]): 68.7%
Activity (MDA-MB-231 [11]): Dose-Dependent Effect
Activity (MDA-MB-231 [12]): Dose-Dependent Effect
Activity (MCF7 [13]): Dose-Dependent Effect
Activity (MCF7 [14]): Dose-Dependent Effect
Activity (MDA-MB-231 [15]): Active
Activity (MDA-MB-231 [16]): Dose-Dependent Effect
Activity (MDA-MB-231 [17]): Dose-Dependent Effect
Activity (MDA-MB-231 [18]): Dose-Dependent Effect
Activity (MDA-MB-231 [19]): Dose-Dependent Effect
Activity (MCF7 [20]): Dose-Dependent Effect
Activity (MCF7 [21]): Dose-Dependent Effect
Activity (MCF7 [22]): Dose-Dependent Effect
Activity (MDA-MB-231 [23]): Active
Activity (MDA-MB-231 [24]): Active
Activity (MDA-MB-231 [25]): Active
Activity (MCF7 [26]): inactive
Activity (MCF7 [27]): inactive
inhibition (MCF7 [28]): Dose-Dependent Effect
Activity (MDA-MB-231 [29]): 7%
Activity (MDA-MB-231 [30]): 6.1%
viability at 15 µM (MCF7 [31]): 78.7%
Activity (MDA-MB-231 [32]): 21.3%
Activity (MDA-MB-231 [33]): 18.5%
Activity (MCF7 [34]): 10.3%
